These results are taken from patent publication US12290587B2, “Anti-aging cosmetic compositions” (GIVAUDAN SA, priority 2019, dated 2025).

The subject of the experiment is Normal Human Dermal Fibroblasts. The experiment can be described thus: Mitochondrial mass (MitoTracker Green FM) in Normal Human Dermal Fibroblasts. In kind it is cell-based. As to conditions: 20 mM, insulin 100 nM. As for the experimental part: Normal Human Dermal Fibroblasts were isolated from skin biopsy coming from a breast reduction surgery on a person. 10′000 cells per well were seeded in a black 96-wells plate with DMEM (Dulbecco's Modified Eagle's Medium, Gibco) supplemented with 10% FCS (Fetal Calf Serum, Biowest) and 1% antibiotics (Sigma Aldrich) and were cultured for 72 hours in an incubator at 37° C. in a humid atmosphere containing 5% CO2. Cells were then rinsed two times with PBS (Phosphate Buffer Saline) before being incubated with FCS-free DMEM medium overnight in the same incubator. On the next day, the cells were treated with (i) mannose at 20 mM, (ii) mannose-6-phosphate at 20 mM or (iii) the above-mentioned Mannose-6-Phosphate complex at 20 mM (n=3) in the presence of insulin (100 nM). After 1 hour and 48 hours of treatment, MitoTracker™ Green FM (ThermoFisher) was added directly in each well for a final concentration of 200 nM and the plate was incubated in the dark in the incubator for 15 minutes. Cells were then rinsed off two times with PBS and each well was filled with 200 μl PBS. Fluorescence intensity of MitoTracker™ Green FM was measured with a microplate reader (Excitation wavelength: 488 nm/Emission wavelength: 525 nm). In this study, the mitochondrial mass in cells was determined using the fluorescence intensity emitted by MitoTracker™ Green FM.

Structures are written as SMILES.

Turning to `O=C[C@@H](O)[C@@H](O)[C@H](O)[C@H](O)COP(=O)(O)O` [mannose-6-phosphate], the “decrease of MitoTracker Green FM specific signal (mitochondrial mass)” value runs as follows: (1 hour treatment) −53%; (48 hours of treatment) −60%.
